# Reference: patent US6552059B2, “Pharmaceutical composition for and method of treating leukemia” (priority 1995, dated 2003)
# Where two headings read alike, the source gives them in different places.
# Key:
# leukemia (P338) = format: in vivo; conditions: ten mice; for mean number of survival days: dosed 5 days, off 2, dosed 5, off 3
# Protocol: Mice were randomly selected and divided into five groups of ten mice each: Group 1—a control group receiving canola oil but no drug treatment; Group 2—a treatment group receiving 125 mg of cytoxan (2-bis(2-chloroethyl)-amino-1-oxo-2-aza-5-oxophosphoridin) per kg of body weight; Group 3—a treatment group receiving 4000 mg of carbendazim per kg of body weight; Group 4—a treatment group receiving 2500 mg of carbendazim per kg of body weight; and Group 5—a treatment group receiving 1000 mg of carbendazim per kg of body weight. The five groups were infected with leukemia (P338). The diseased animals were dosed for five days, off two days, dosed again for another five days and off again for three days.
# leukemia (P388SS) = format: in vivo, mouse; conditions: for % increase in survival time versus nontreated control: control = 100
# Protocol: In an in vivo mouse study for leukemia (P388SS), carbendazim (2-carbonylaminobenzimidazole) was tested in combination with griseofulvin.
smiles,measurement,setting,value
"COC(=O)Nc1nc2ccccc2[nH]1 [carbendazim, 2-(methoxycarbonylamino)benzimidzole]",mean number of survival days,"leukemia (P338); Group 3, 4000 mg carbendazim per kg, after infection with leukemia",17.3 days
same,mean number of survival days,"leukemia (P338); Group 4, 2500 mg carbendazim per kg",16.5 days
same,mean number of survival days,"leukemia (P338); Group 5, 1000 mg carbendazim per kg",14.1 days
same,% increase in survival time versus nontreated control,"leukemia (P388SS); griseofulvin 0 mg/kg, carbendazim 1000 mg/kg",153%
same,% increase in survival time versus nontreated control,"leukemia (P388SS); griseofulvin 0 mg/kg, carbendazim 2000 mg/kg",190%
same,% increase in survival time versus nontreated control,"leukemia (P388SS); griseofulvin 0 mg/kg, carbendazim 3000 mg/kg",176%
COC1=CC(=O)C[C@@H](C)[C@]12Oc1c(Cl)c(OC)cc(OC)c1C2=O [Griseofulvin],% increase in survival time versus nontreated control,"leukemia (P388SS); griseofulvin 3000 mg/kg, carbendazim 0 mg/kg",130%
same,% increase in survival time versus nontreated control,"leukemia (P388SS); griseofulvin 4000 mg/kg, carbendazim 0 mg/kg",165%
same,% increase in survival time versus nontreated control,"leukemia (P388SS); griseofulvin 5000 mg/kg, carbendazim 0 mg/kg",213%
"O=P1(N(CCCl)CCCl)NCCCO1 (centres unmarked) [cytoxan, 2-bis(2-chloroethyl)-amino-1-oxo-2-aza-5-oxophosphoridin, reference compound]",deaths after infection with leukemia,"leukemia (P338); Group 2, 125 mg cytoxan per kg, up to twenty one days after infection",none died
same,deaths during the test period,"leukemia (P388SS); positive control, 300 mg/kg (qdx1)",no deaths
